In the supplement of paper PMC10307832:

Legend:
Assay in all cases: relative viability (nuclei count vs DMSO), 5 days (fraction); higher = more cells survive
[1] = compound: O=C(c1cc(Cc2n[nH]c(=O)c3ccccc23)ccc1F)N1CCN(C(=O)C2CC2)CC1 [Olaparib] + Nc1nc2[nH]cc(CCc3ccc(C(=O)N[C@@H](CCC(=O)O)C(=O)O)cc3)c2c(=O)[nH]1 [Pemetrexed] (partner 0.2 µM)
Procedure, shortened: (§1)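 Lung cancer cell lines in 1536-well plates were dosed by pin tool the day after seeding, either with one drug alone or with a fixed anchor-drug dose plus five library-drug doses (not always all listed) in √10 steps. After 5 days, cells were fixed and their nuclei stained in one step (final 0.05% Triton X-100, 1% formaldehyde, 1 ug/ml Hoechst), then counted on 4× images. Relative viability is the nuclei count in treated wells divided by that in vehicle wells. Values are medians of duplicate plates.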

[2] = compound: CC(C)C[C@H](NC(=O)[C@H](CCc1ccccc1)NC(=O)CN1CCOCC1)C(=O)N[C@@H](Cc1ccccc1)C(=O)N[C@@H](CC(C)C)C(=O)[C@@]1(C)CO1 [Carfilzomib] + C[C@@H](Oc1cc(-c2cnn(C3CCNCC3)c2)cnc1N)c1c(Cl)ccc(F)c1Cl [Crizotinib] (partner 1 µM)
Procedure, shortened: as §1

[3] = compound: O=C(c1cc(Cc2n[nH]c(=O)c3ccccc23)ccc1F)N1CCN(C(=O)C2CC2)CC1 [Olaparib] + Cc1nc(Nc2ncc(C(=O)Nc3c(C)cccc3Cl)s2)cc(N2CCN(CCO)CC2)n1 [Dasatinib] (partner 0.075 µM)
Procedure, shortened: as §1

[4] = compound: O=C(c1cc(Cc2n[nH]c(=O)c3ccccc23)ccc1F)N1CCN(C(=O)C2CC2)CC1 [Olaparib] + CC(=O)c1c(C)c2cnc(Nc3ccc(N4CCNCC4)cn3)nc2n(C2CCCC2)c1=O [Palbociclib] (partner 0.5 µM)
Procedure, shortened: as §1

Cell Line	relative viability ([1]; first compound 0.08 µM)	relative viability ([1]; first compound 0.253 µM)	relative viability ([1]; first compound 2.53 µM)	relative viability ([1]; first compound 8 µM)	relative viability ([2]; first compound 0.001 µM)	relative viability ([2]; first compound 0.003162 µM)	relative viability ([2]; first compound 0.01 µM)	relative viability ([2]; first compound 0.03162 µM)	relative viability ([2]; first compound 0.1 µM)	relative viability ([3]; first compound 0.08 µM)	relative viability ([3]; first compound 0.253 µM)	relative viability ([3]; first compound 2.53 µM)	relative viability ([3]; first compound 8 µM)	relative viability ([4]; first compound 0.08 µM)	relative viability ([4]; first compound 0.253 µM)	relative viability ([4]; first compound 2.53 µM)	relative viability ([4]; first compound 8 µM)
NCI-H460	0.055	0.0542	0.0654	0.0663	0.921	1.01	0.852	0.0558	0.0115	0.471	0.464	0.32	0.178	0.0979	0.0831	0.0723	0.0812
NCI-H520	0.866	0.646	0.604	0.458	0.759	0.883	0.665	0.103	0.106	0.176	0.178	0.189	0.153	0.239	0.207	0.179	0.152
NCI-H647	0.193	0.156	0.138	0.15	0.847	1.04	0.713	0.0319	0.0277	0.249	0.181	0.189	0.175	0.431	0.331	0.321	0.381
NCI-H650	0.912	0.901	0.871	0.776	0.677	0.996	0.698	0.577	0.132	0.478	0.428	0.424	0.372	0.324	0.312	0.311	0.227
NCI-H661	0.954	0.871	0.901	0.795	0.861	0.971	1.01	0.985	0.867	0.801	0.769	0.7	0.715	0.384	0.383	0.389	0.362
NCI-H838	0.25	0.226	0.239	0.246	0.876	0.972	0.923	0.577	0.122	0.303	0.259	0.272	0.256	0.269	0.196	0.198	0.247
NCI-H1355	1.04	1.01	1.05	1.08	1.05	1.05	1.03	0.695	0.139	0.759	0.731	0.724	0.703	0.364	0.422	0.407	0.414
NCI-H1437	0.345	0.3	0.32	0.325	0.915	1.04	0.898	0.835	0.184	0.548	0.399	0.441	0.39	0.32	0.303	0.327	0.353
NCI-H1650	0.393	0.329	0.314	0.366		0.839	0.642	0.114	0.139	0.313	0.342	0.287	0.285	0.478	0.324	0.331	0.335
NCI-H1651	0.624	0.586	0.553	0.334	0.874	0.914	0.782	0.383	0.122	0.423	0.311	0.31	0.218	0.547	0.494	0.493	0.384
NCI-H1666	0.945	0.772	0.856	0.822	1.07	1.14	1.08	0.409	0.211	0.883	0.68	0.693	0.651	0.669	0.717	0.677	0.609
NCI-H1734	0.417	0.398	0.387	0.362	0.658	0.836	0.616	0.435	0.111	0.458	0.399	0.421	0.326	0.337	0.327	0.29	0.304
NCI-H1755	0.447	0.68	0.419	0.396	0.817	0.904	0.894	0.498	0.189	0.477	0.399	0.44	0.404	0.415	0.436	0.445	0.436
NCI-H1792	0.86	0.547	0.605	0.398	0.946	0.938	1.01	0.985	0.642	0.816	0.689	0.841	0.62	0.694	0.576	0.63	0.617
NCI-H1915	0.553	0.493	0.511	0.419	0.879	0.927	0.887	0.434	0.069	0.315	0.294	0.28	0.252	0.529	0.469	0.405	0.294
NCI-H1944	0.639	0.529	0.496	0.561	1.02	1.2	1.09	1.07	0.302	0.177	0.215	0.178	0.149	0.34	0.335	0.316	0.271
NCI-H1975	0.304	0.265	0.303	0.275	0.944	0.951	0.536	0.116	0.131	0.396	0.346	0.381	0.364	0.593	0.607	0.569	0.502
NCI-H1993	0.622	0.658	0.627	0.556	0.871	0.97	1.12	0.807	0.473	0.725	0.556	0.656	0.716	0.49	0.653	0.83	0.735

Cell Line	relative viability ([1]; first compound 0.08 µM)	relative viability ([1]; first compound 0.253 µM)	relative viability ([1]; first compound 2.53 µM)	relative viability ([1]; first compound 8 µM)	relative viability ([2]; first compound 0.001 µM)	relative viability ([2]; first compound 0.003162 µM)	relative viability ([2]; first compound 0.01 µM)	relative viability ([2]; first compound 0.03162 µM)	relative viability ([2]; first compound 0.1 µM)	relative viability ([3]; first compound 0.08 µM)	relative viability ([3]; first compound 0.253 µM)	relative viability ([3]; first compound 2.53 µM)	relative viability ([3]; first compound 8 µM)	relative viability ([4]; first compound 0.08 µM)	relative viability ([4]; first compound 0.253 µM)	relative viability ([4]; first compound 2.53 µM)	relative viability ([4]; first compound 8 µM)
NCI-H2009	1.15	1.03	1.01	0.842	1.07	1.14	1.09	0.37	0.0428	0.42	0.279	0.304	0.272	0.233	0.205	0.194	0.17
NCI-H2023	0.215	0.231	0.241	0.156	0.666	0.64	0.733	0.375	0.0656	0.672	0.489	0.528	0.467	0.413	0.34	0.397	0.292
NCI-H2085	0.971	0.755	0.871	0.852	0.83	0.769	0.662	0.368	0.225	0.292	0.225	0.241	0.226	0.559	0.453	0.477	0.459
NCI-H2087	0.74	0.591	0.596	0.556	0.876	1.03	0.827	0.0787	0.091	1.27	0.621	0.804	0.617	0.282	0.211	0.259	0.217
NCI-H2126	0.743	0.649	0.663	0.681	0.98	1.07	0.989	1.01	0.707	0.728	0.634	0.558	0.606	0.374	0.364	0.343	0.35
NCI-H2170	0.259	0.331	0.265	0.245	1.1	1.32	1.33	0.528	0.2	0.471	0.629	0.47	0.638	0.427	0.395	0.411	0.315
NCI-H2228	0.395	0.323	0.311	0.322	0.49	0.389	0.666	0.149	0.17	0.587	0.495	0.458	0.304	0.792	0.667	0.731	0.452
NCI-H2347	0.474	0.476	0.435	0.397	0.798	0.756	0.596	0.449	0.35	0.335	0.292	0.293	0.294	0.381	0.431	0.393	0.409
NCI-H2405	1.02	0.931	1.02	1.01	0.807	0.916	0.866	0.785	0.175	0.192	0.181	0.204	0.217	0.577	0.497	0.491	0.496
NCI-H3122	0.202	0.194	0.191	0.18	0.3	0.286	0.259	0.303	0.274	0.463	0.823	0.873	0.696	0.206	0.193	0.194	0.188
PC-3 [JPC-3]	1.1		1.26	1.05	1.01	0.99	0.985	0.828	0.376	1.08	0.902	1.01	0.895	0.531		0.52	0.534
PC-14	0.131	0.14	0.135	0.139	0.939	0.934	0.9	0.326	0.0895	0.333	0.231	0.311	0.205	0.614	0.401	0.366	0.212
RERF-LC-KJ	0.527	0.477	0.481	0.449	0.899	0.801	0.86	0.78	0.359	0.891	0.81	0.858	0.8	1.17	0.964	1.08	1.02
SK-LU-1	1.12	0.865	0.866	0.635	0.885	1.02	0.807	0.575	0.152	0.197	0.159	0.181	0.161	0.452	0.346	0.419	0.343
SK-MES-1	0.982	0.91	0.853	0.768	1.04	1.05	1.09	0.752	0.169	0.41	0.323	0.431	0.228	0.376	0.278	0.325	0.254
SW 1573	0.903	0.899	0.779	0.597	0.887	0.864	0.793	0.261	0.0628	0.698	0.456	0.504	0.354	0.468	0.377	0.338	0.252
UMC-11	0.806	0.683	0.691	0.537	0.613	0.627	0.627	0.554	0.1	0.464	0.47	0.452	0.396	0.286		0.317	0.31
